Patent US6572603B1, “Vitamin d solution holder and containers for transfusions” (Otsuka Pharmaceutical Factory, Inc., priority 1998, dated 2003)
Structures can show the parent of a compound that is named as a salt.

What was measured:
[1] = Vitamin contents in transfusion fluid containers of Examples 4 and 5 after autoclaving and 40° C. four-month storage, bioassay (vitamin B12, biotin) or HPLC (other vitamins); type: physicochemical
Experimental: In a holder produced from a three-layered film (the thickness of each layer: 10 μm) in which the outer and the inner layers are made of polyethylene and the intermediate layer is made of ethylene.tetracyclododecene copolymer (trade name: Apel, product of Mitsui Chemicals, Inc.), solution (C) (4 ml) was charged and the inlet was melt-sealed. In a two-compartment container, the prepared holder was attached to one of the compartments. […] The above-described transfusion fluid containers in Examples 4 and 5 were allowed to stand at 40° C. for four months after autoclaving. Thereafter, the contents of vitamins in the containers were measured through a bioassay according to Pharmacopoeia of Japan (for vitamin B12 and biotin) or through HPLC (for other vitamins). The content of each vitamin is represented by a percentage (%) of the initially incorporated amount.

[2] = Vitamin content of solution (C) in polyolefin holders after autoclaving and storage at 40° C. for four months, measured through HPLC (Example 3); type: physicochemical
Experimental: Solution (C) (4 ml) prepared in Example 1 was charged into each of holders made of the materials shown in Table 3, to thereby obtain a holder which contains a solution of vitamin D3. Each of these holders containing a solution of vitamin D3 was subjected to autoclaving and wrapped in a nylon multi-layered-film bag together with a deoxidizing agent (trade name: Ageless, product of Mitsubishi Gas Chem. Co., Inc.). The thus-wrapped holders were allowed to stand at 40° C. for four months. Thereafter, the content of each vitamin in each holder was measured through HPLC. The content of each vitamin is represented by a percentage (%) of the initially incorporated amount.

[3] = Example 4 transfusion fluid container, 40° C., 4 months
[4] = Example 4 transfusion fluid container, immediately after sterilization
[5] = Example 5 transfusion fluid container, 40° C., 4 months
[6] = Example 5 transfusion fluid container, immediately after sterilization
[7] = holder No. 1, polyethylene, 30 μm, resin 7.4 cm^3 per μmol vitamin D, 40° C., 4 months
[8] = holder No. 1, polyethylene, 30 μm, resin 7.4 cm^3 per μmol vitamin D, after sterilization
[9] = holder No. 2, polyethylene, 100 μm, resin 18.5 cm^3 per μmol vitamin D, 40° C., 4 months
[10] = holder No. 2, polyethylene, 100 μm, resin 18.5 cm^3 per μmol vitamin D, after sterilization
[11] = holder No. 3, polypropylene, 30 μm, resin 7.4 cm^3 per μmol vitamin D, 40° C., 4 months
[12] = holder No. 3, polypropylene, 30 μm, resin 7.4 cm^3 per μmol vitamin D, after sterilization
[13] = holder No. 4, polyethylene, 250 μm, resin 123.2 cm^3 per μmol vitamin D, 40° C., 4 months
[14] = holder No. 4, polyethylene, 250 μm, resin 123.2 cm^3 per μmol vitamin D, after sterilization
[15] = holder No. 5, polypropylene, 250 μm, resin 123.2 cm^3 per μmol vitamin D, 40° C., 4 months
[16] = holder No. 5, polypropylene, 250 μm, resin 123.2 cm^3 per μmol vitamin D, after sterilization

| Compound | Vitamin content, percentage (%) of the initially incorporated amount [1, 3] [%] | Vitamin content, percentage (%) of the initially incorporated amount [1, 4] [%] | Vitamin content, percentage (%) of the initially incorporated amount [1, 5] [%] | Vitamin content, percentage (%) of the initially incorporated amount [1, 6] [%] | Vitamin content (%) of initially incorporated amount [2, 7] [%] | Vitamin content (%) of initially incorporated amount [2, 8] [%] | Vitamin content (%) of initially incorporated amount [2, 9] [%] | Vitamin content (%) of initially incorporated amount [2, 10] [%] | Vitamin content (%) of initially incorporated amount [2, 11] [%] | Vitamin content (%) of initially incorporated amount [2, 12] [%] | Vitamin content (%) of initially incorporated amount [2, 13] [%] | Vitamin content (%) of initially incorporated amount [2, 14] [%] | Vitamin content (%) of initially incorporated amount [2, 15] [%] | Vitamin content (%) of initially incorporated amount [2, 16] [%] |
| --- | --- | --- | --- | --- | --- | --- | --- | --- | --- | --- | --- | --- | --- | --- |
| O=C(O)CCCC[C@@H]1SC[C@@H]2NC(=O)N[C@@H]21 [Biotin, biotin] | 99.8 | 100.4 | 100.3 | 98.7 | – | – | – | – | – | – | – | – | – | – |
| NC(=O)c1cccnc1 [Nicotinamide, nicotinamide] | 97.8 | 98.6 | 98.5 | 98.2 | – | – | – | – | – | – | – | – | – | – |
| CC(C)(CO)[C@@H](O)C(=O)NCCCO [Panthenol, panthenol] | 96.9 | 97.4 | 97.6 | 98.5 | – | – | – | – | – | – | – | – | – | – |
| Cc1ncc(CO)c(CO)c1O.Cl [Pyridoxine hydrochloride (B6), pyridoxine hydrochloride] | 100.1 | 100.5 | 99.8 | 99.7 | – | – | – | – | – | – | – | – | – | – |
| Cc1ncc(C[n+]2csc(CCO)c2C)c(N)n1 [Thiamin hydrochloride (B1), thiamin hydrochloride] | 87.4 | 93.8 | 86.6 | 93.5 | – | – | – | – | – | – | – | – | – | – |

The remaining lines, values ahead:

| Vitamin content, percentage (%) of the initially incorporated amount [1, 3] [%] | Vitamin content, percentage (%) of the initially incorporated amount [1, 4] [%] | Vitamin content, percentage (%) of the initially incorporated amount [1, 5] [%] | Vitamin content, percentage (%) of the initially incorporated amount [1, 6] [%] | Vitamin content (%) of initially incorporated amount [2, 7] [%] | Vitamin content (%) of initially incorporated amount [2, 8] [%] | Vitamin content (%) of initially incorporated amount [2, 9] [%] | Vitamin content (%) of initially incorporated amount [2, 10] [%] | Vitamin content (%) of initially incorporated amount [2, 11] [%] | Vitamin content (%) of initially incorporated amount [2, 12] [%] | Vitamin content (%) of initially incorporated amount [2, 13] [%] | Vitamin content (%) of initially incorporated amount [2, 14] [%] | Vitamin content (%) of initially incorporated amount [2, 15] [%] | Vitamin content (%) of initially incorporated amount [2, 16] [%] | Compound |
| --- | --- | --- | --- | --- | --- | --- | --- | --- | --- | --- | --- | --- | --- | --- |
| 97.5 | 97.8 | 99.1 | 98.3 | – | – | – | – | – | – | – | – | – | – | Nc1nc2ncc(CNc3ccc(C(=O)N[C@@H](CCC(=O)O)C(=O)O)cc3)nc2c(=O)[nH]1 [Folic acid, folic acid] |
| 84.5 | 87.2 | 83.9 | 86.5 | 80.7 | 91.1 | 81.3 | 90.9 | 81.2 | 90.7 | 78.3 | 89.1 | 77.8 | 88.9 | CCCCCCCCCCCCCCCC(=O)OC/C=C(C)/C=C/C=C(C)/C=C/C1=C(C)CCCC1(C)C [Vitamin A, retinol palmitate] |
| 83.2 | 86.5 | 84.3 | 85.9 | 90.7 | 94.8 | 91.2 | 96.3 | 91.0 | 95.4 | 90.9 | 94.6 | 91.2 | 95.3 | Cc1cc2nc3c(=O)[nH]c(=O)nc-3n(C[C@H](O)[C@H](O)[C@H](O)COP(=O)(O)O)c2cc1C [Vitamin B2, sodium riboflavin phosphate] |
| 98.3 | 98.7 | 97.5 | 97.8 | 94.3 | 96.2 | 95.4 | 97.1 | 94.2 | 97.3 | 94.8 | 97.5 | 93.1 | 96.8 | O=C1O[C@H]([C@@H](O)CO)C(O)=C1O [Vitamin C, ascorbic acid] |
| 95.1 | 94.9 | 94.8 | 95.3 | 98.3 | 98.7 | 99.7 | 99.4 | 97.3 | 97.6 | 95.6 | 98.2 | 95.3 | 97.6 | CC(=O)Oc1c(C)c(C)c2c(c1C)CCC(C)(CCC[C@H](C)CCC[C@H](C)CCCC(C)C)O2 (some centres unmarked) [Vitamin E, tocopherol acetate] |
| 95.3 | 96.2 | 95.4 | 95.8 | 91.3 | 95.4 | 90.8 | 94.7 | 91.3 | 96.1 | 89.1 | 94.3 | 88.7 | 93.9 | CC1=C(C/C=C(\C)CCC[C@H](C)CCC[C@H](C)CCCC(C)C)C(=O)c2ccccc2C1=O [Vitamin K, phytonadione] |
| 89.2 | 91.3 | 90.5 | 96.5 | – | – | – | – | – | – | – | – | – | – | cyanocobalamin [Cyanocobalamin (B12)] |
